Source: article PMC9029695, “5-Aryl-1,3,4-oxadiazol-2-amines Decorated with Long Alkyl and Their Analogues: Synthesis, Acetyl- and Butyrylcholinesterase Inhibition and Docking Study” (Pharmaceuticals, 2022)

Key:
[1] = molecular target: T1, BChE from equine serum (EqBChE) (Equus caballus, UniProt P81908); assay: Inhibition of BChE, modified Ellman's spectrophotometric method; format: biochemical; conditions: for IC50: EqBChE, Ellman's method, mean ± SD, n = three independent experiments
T1 construct: butyrylcholinesterase originated from equine serum (EqBChE); purchased Merck (Prague, Czech Republic); host or cells: equine serum
Source text: (§1) The heterocycles 3 were screened for their ability to interfere with the function of AChE from electric eel (EeAChE) and BChE from equine serum (EqBChE) using Ellman’s method (Table 1). Their activities are expressed as the concentration producing 50% inhibition of enzymatic activity (IC50). In addition, we calculated selectivity indexes (SI) that quantify the selectivity for AChE as more inhibited cholinesterase. SI is the ratio of IC50 for BChE/IC50 for AChE.
(§2) Enzyme inhibition activity of 3 quantified as IC50 values was determined spectrophotometrically using modified Ellman’s method. […] The enzyme activity is measured indirectly by determination of 5-mercapto-2-nitrobenzoic acid ion formed after reaction of the thiol reagent 5,5′-disulfanediyl-bis(2-nitrobenzoic acid) (DTNB) and thiocholine, a product of acetylthiocholine (ATCh) and butyrylthiocholine (BTCh) as substrates for hydrolysis by AChE and BChE, respectively.
(§3) The enzyme activity in final reaction mixture (2000 µL) was 0.2 U/mL, concentration of ATCh (or BTCh) 40 µM and concentration of DTNB 100 µM for all reactions. The compounds 3 were dissolved in DMSO and then diluted in demineralized water (conductivity 3 μS, equipment supplier BKG Water Treatment, Hradec Králové, Czech Republic) to the concentration of 1000 µM. […] The final concentration of DMSO was 0.2%. All experiments were carried in triplicates. The average values of reaction rate (v0-uninhibited reaction, vi-inhibited reaction) were used for construction of the dependence v0/vi vs. concentration of inhibitor. From obtained equation of regression curve, IC50 values were calculated.
(§4) Acetylcholinesterase was used from electric eel (Electrophorus electricus L.; EeAChE) and butyrylcholinesterase originated from equine serum (EqBChE).

[2] = molecular target: T2, AChE from electric eel (EeAChE) (Electrophorus electricus, UniProt O42275); assay: Inhibition of AChE, modified Ellman's spectrophotometric method; format: biochemical, electric eel (Electrophorus electricus L.); conditions: for IC50: EeAChE, Ellman's method, mean ± SD, n = three independent experiments
T2 construct: purchased Merck (Prague, Czech Republic)
Source text: as §1, §2, §3, §4

AChE [3] = molecular target: T3, AChE (Electrophorus electricus, UniProt O42275); assay: Type of AChE inhibition (Lineweaver–Burk plot); format: biochemical, electric eel (Electrophorus electricus L.); conditions: ATCh 20–80 µM, inhibitor 10, 25, 35 and 50 µM
T3 construct: purchased Merck (Prague, Czech Republic)
Source text: We also valuated the type of inhibition of 3t using AChE. In general, the reversible inhibitors can be classified as competitive, non-competitive, uncompetitive, or mixed type. The type of inhibition could be distinguished using the Lineweaver–Burk plot and the corresponding comparison of two key kinetic parameters: maximum velocity (Vm) and Michaelis constant (KM) of the inhibited and uninhibited reactions. Based on the changes of these parameters and intercept of the lines in Lineweaver–Burk plot, the type of inhibition is uncovered.
The inhibition is associated with a change in both KM and Vm and also their ratio is different compared to the uninhibited reaction. In the Lineweaver–Burk plot, the intersection of the lines is in quadrant III but not on axis.
The procedure was analogous to the determination of IC50. The enzyme activity in the final reaction mixture (2000 µL) was 0.2 U/mL, concentration of ATCh 20–80 µM and concentration of DTNB was 100 µM. For each of the substrate concentrations, four different concentrations of the inhibitor were used (10, 25, 35 and 50 µM). The dependence of absorbance vs. time was observed and the reaction rate was calculated. […] From obtained equations of regression curves in Lineweaver–Burk plot, the values of Michaelis constant (KM) and maximum velocity (Vm) were calculated. […]

AChE [4] = molecular target: T3, AChE; assay: Reversibility of AChE inhibition (residual enzyme activity over time); format: biochemical, electric eel (Electrophorus electricus L.)
Source text: Based on the promising in vitro inhibition of AChE by thiadiazole 3t, we investigated the derivative to distinguish between reversible, pseudo-irreversible and irreversible inhibition on the basis of changes in enzyme activity over time in the presence of the inhibitor. In reversible inhibition, the activity of enzyme goes down immediately, but the inhibitory molecule is bound to the target for a short period of time, after which the inhibitor-enzyme complex dissociates, and enzyme activity is restored. In pseudo-irreversible inhibition, the inhibitor binds covalently to the enzyme, but the bond is broken down more slowly, delaying the return of enzyme activity to its initial state. In the case of irreversible inhibitors, the reaction between the enzyme and the inhibitor is not rapid because there is a time-dependent drop of activity. Irreversible inhibitors decrease enzyme activity gradually. […]
Three different inhibitor concentrations (1, 10, and 100 µM) were chosen. […] At given times (5, 10, 15, 20, 30, 40, 50, 60, 260, and 1450 min), DTNB and ATCh were added to the sample taken from the reaction mixture, mixed rapidly, and the absorbance was measured to quantify the enzyme activity. Based on knowledge of the enzyme activity in the absence of the inhibitor (i.e., 100% activity), the percentages of residual enzyme activity in presence of inhibitor were calculated. […]

T3 sequence (O42275 24-633): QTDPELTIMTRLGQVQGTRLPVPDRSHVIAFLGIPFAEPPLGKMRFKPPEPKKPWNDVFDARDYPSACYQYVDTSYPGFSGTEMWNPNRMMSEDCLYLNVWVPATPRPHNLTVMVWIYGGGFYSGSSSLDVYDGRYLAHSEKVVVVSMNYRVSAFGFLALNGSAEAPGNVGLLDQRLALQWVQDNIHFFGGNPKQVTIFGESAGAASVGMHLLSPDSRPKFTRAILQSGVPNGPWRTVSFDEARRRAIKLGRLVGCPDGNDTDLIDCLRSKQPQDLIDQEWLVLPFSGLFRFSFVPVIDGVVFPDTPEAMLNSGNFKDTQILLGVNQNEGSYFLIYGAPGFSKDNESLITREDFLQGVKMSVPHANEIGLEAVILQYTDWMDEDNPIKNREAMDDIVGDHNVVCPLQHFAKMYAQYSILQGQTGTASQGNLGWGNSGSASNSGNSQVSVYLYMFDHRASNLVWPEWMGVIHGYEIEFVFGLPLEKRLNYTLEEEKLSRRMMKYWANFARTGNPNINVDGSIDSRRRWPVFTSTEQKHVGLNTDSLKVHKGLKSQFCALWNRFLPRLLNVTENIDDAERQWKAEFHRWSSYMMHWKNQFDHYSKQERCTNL
T2 sequence (O42275 24-633): as above
T1 sequence (P81908 whole entry): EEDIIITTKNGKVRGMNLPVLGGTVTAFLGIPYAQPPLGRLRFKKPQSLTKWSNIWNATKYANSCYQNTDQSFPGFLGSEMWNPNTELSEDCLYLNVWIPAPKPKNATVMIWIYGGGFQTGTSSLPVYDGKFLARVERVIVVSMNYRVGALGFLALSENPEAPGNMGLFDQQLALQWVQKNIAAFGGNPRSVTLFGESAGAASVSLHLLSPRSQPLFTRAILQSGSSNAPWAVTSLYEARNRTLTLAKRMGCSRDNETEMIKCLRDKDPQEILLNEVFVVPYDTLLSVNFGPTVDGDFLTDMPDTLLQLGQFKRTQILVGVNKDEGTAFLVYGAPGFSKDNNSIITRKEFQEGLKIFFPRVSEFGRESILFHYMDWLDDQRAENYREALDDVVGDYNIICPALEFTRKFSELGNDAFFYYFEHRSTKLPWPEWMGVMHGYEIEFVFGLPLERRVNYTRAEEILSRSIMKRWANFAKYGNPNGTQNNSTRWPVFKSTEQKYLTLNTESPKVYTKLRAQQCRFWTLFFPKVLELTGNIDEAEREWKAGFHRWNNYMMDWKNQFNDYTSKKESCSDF

Structure (SMILES) | IC50 [1] [µM] | IC50 [2] [µM] | BChE/AChE Ratio (selectivity index, IC50 for BChE/IC50 for AChE) [2] | fold lower AChE inhibition, oxadiazole vs. thiadiazole 3t ([2]; 3t vs. 3l) [×] | type of inhibition (AChE [3]) | fold boost of BChE inhibitory potency, switch of oxygen to sulfur ([1]; 3l vs. 3t) [×] | reversibility of AChE inhibition (AChE [4]; 1, 10 and 100 µM, residual activity followed 5–1450 min) | time at which almost maximum inhibition is reached (AChE [4]; two lower concentrations (1 and 10 µM)) [min] | fold higher in vitro activity (IC50) against AChE than rivastigmine ([2]; compared with rivastigmine) [×]
CCCCCCCCCCCCNc1nnc(-c2cc([N+](=O)[O-])cc([N+](=O)[O-])c2)o1 [3k, 5-(3,5-Dinitrophenyl)-N-dodecyl-1,3,4-oxadiazol-2-amine] | 384 ± 5.34 | 40.98 ± 0.11 | 9.4 |  |  |  |  |  | 
CCCCCCCCCCCCNc1nnc(-c2ccncc2)o1 [3l, N-Dodecyl-5-(pyridin-4-yl)-1,3,4-oxadiazol-2-amine] | 223 ± 1.54 | 50.2 ± 0.79 | 4.4 | 3.9 |  |  |  |  | 
CCCCCCCCCCCCNc1nnc(-c2cccnc2)o1 [3m, N-Dodecyl-5-(pyridin-3-yl)-1,3,4-oxadiazol-2-amine] | 369 ± 3.83 | 64.2 ± 0.93 | 5.8 |  |  |  |  |  | 
CCCCCCCCCCCCNc1nnc(-c2ccccn2)o1 [3n, N-Dodecyl-5-(pyridin-2-yl)-1,3,4-oxadiazol-2-amine] | 315.4 ± 1.96 | 60.5 ± 2.42 | 5.2 |  |  |  |  |  | 
CCCCCCCCCCCCNc1nnc(-c2ccncn2)o1 [3o, N-Dodecyl-5-(pyrimidin-4-yl)-1,3,4-oxadiazol-2-amine] | 298.3 ± 2.19 | 45.5 | 6.6 |  |  |  |  |  | 
CCCCCCCCCCCCNc1nnc(-c2cnccn2)o1 [3p, N-Dodecyl-5-(pyrazin-2-yl)-1,3,4-oxadiazol-2-amine] | 452 ± 59.3 | 92.1 ± 6.11 | 4.9 |  |  |  |  |  | 
CCCCCCCCCCCCNc1nnc(-c2ccnc(Br)c2)o1 [3q, 5-(2-Bromopyridin-4-yl)-N-dodecyl-1,3,4-oxadiazol-2-amine] | 224.2 ± 1.29 | 73.4 ± 2.06 | 3.1 |  |  |  |  |  | 
CCCCCCCCCCCCNc1nnc(-c2ccnnc2)o1 [3r, N-Dodecyl-5-(pyridazin-4-yl)-1,3,4-oxadiazol-2-amine] | 238 ± 13.8 | 81.5 ± 4.14 | 2.9 |  |  |  |  |  | 
CCCCCCCCCCCCSc1nnc(-c2ccncc2)o1 [3s, 2-(Dodecylthio)-5-(pyridin-4-yl)-1,3,4-oxadiazole] | > 500 | 91.6 ± 7.14 | >5.5 |  |  |  |  |  | 
CCCCCCCCCCCCNc1nnc(-c2ccncc2)s1 [3t, N-Dodecyl-5-(pyridin-4-yl)-1,3,4-thiadiazol-2-amine] | 53.1 ± 3.68 | 12.78 ± 0.03 | 4.2 |  | mixed type of inhibition | 4.2 | reversible AChE inhibitor | 5 | 4.4
CCCCCCCCCCCCc1nnc(-c2ccncc2)o1 [3u, 2-Dodecyl-5-(pyridin-4-yl)-1,3,4-oxadiazole] | 289 ± 1.55 | 99.2 ± 3.26 | 2.9 |  |  |  |  |  | 
